Assay: Solubility check of a 3.3% solution of cefixime (I) in methanol
Assay type: physicochemical
Details: for Solubility: 3.3% solution of cefixime (I) in methanol
Procedure: The most preferred embodiment of the present invention is the acidification of the filtrate obtained in step (ii) to pH 2.0 to 3.0, preferably to 2.2 to 2.4 with dilute […] filtration at 50-80°, preferably at 60-70° C., most preferably at 64-68° C.

Structure (SMILES): C=CC1=C(C(=O)O)N2C(=O)C(NC(=O)/C(=N\OCC(=O)O)c3csc(N)n3)C2SC1 (stereo not drawn) [cefixime (I), [6R-[6α,7β(Z)]]-7-[[(2-amino-4-thiazolyl)[(carboxymethoxy)imino]acetyl]amino]-3-vinyl-3-cephem-4-carboxylic acid]
- Solubility (acidification and isolation of cefixime methyl ester (IV) at 25-30° C.): Hazy
- Solubility (acidification and isolation of cefixime methyl ester (IV) at 45-47° C.): Hazy
- Solubility (acidification and isolation of cefixime methyl ester (IV) at 65-67° C.): Clear
- Solubility profile (in words) (acidification and isolation of cefixime ester (IV) at 50-80° C., then alkaline hydrolysis): better solubility profile
- Solubility (in words) (acidification and isolation of cefixime ester (IV) at temperature below 50° C., then alkaline hydrolysis): poor solubility

From patent US8008478B2, “Process for the preparation of cefixime” (Lupin Limited, priority 2004, dated 2011)
